Test results as given in patent US12577267B2, “Pyrimidine compounds for use as MAP4K1 inhibitors” (GLENMARK SPECIALITY S.A., priority 2021, dated 2026).
Where a name gives a salt, the structure may show the parent alone. Read-outs that look alike come from different tables or passages of the source.

Target: MAP4K-1 enzyme (Homo sapiens, UniProt Q92918)
Assay: FRET one step binding assay (tracer displacement)
Method: This is a one step binding assay based on the binding and displacement of the labeled tracer, where compound addition is followed by addition of the anti-GST tagged europium (Eu) as the donor and Alexa Fluor-labeled tracer as the acceptor.
Test compounds were dissolved in dimethylsulfoxide (DMSO) to prepare 10.0 mM stock solutions and diluted to the desired concentration. The final concentration of DMSO in the reaction was 3% (v/v). The assay mixture was prepared by mixing 2 nM of the Eu-Anti-GST Antibody and 5 nM MAP4K-1 enzyme in the Kinase buffer containing 50 mM HEPES (pH 7.5), 10 mM MgCl2, 1 mM EGTA, 0.01% Brij-35 with or without the desired concentration of the compound. The reaction was incubated on ice for 15 min. […] After shaking for 5 min the reaction was further incubated for 1 hour at room temperature and this was kept at 4° C. and read on ARTEMIS reader as per the kit instructions (Thermo). […] The activity was calculated as percent of control reaction. IC50 values were calculated from dose response curve by nonlinear regression analysis using GraphPad Prism software.

Chain of MAP4K-1 enzyme (Q92918 whole entry): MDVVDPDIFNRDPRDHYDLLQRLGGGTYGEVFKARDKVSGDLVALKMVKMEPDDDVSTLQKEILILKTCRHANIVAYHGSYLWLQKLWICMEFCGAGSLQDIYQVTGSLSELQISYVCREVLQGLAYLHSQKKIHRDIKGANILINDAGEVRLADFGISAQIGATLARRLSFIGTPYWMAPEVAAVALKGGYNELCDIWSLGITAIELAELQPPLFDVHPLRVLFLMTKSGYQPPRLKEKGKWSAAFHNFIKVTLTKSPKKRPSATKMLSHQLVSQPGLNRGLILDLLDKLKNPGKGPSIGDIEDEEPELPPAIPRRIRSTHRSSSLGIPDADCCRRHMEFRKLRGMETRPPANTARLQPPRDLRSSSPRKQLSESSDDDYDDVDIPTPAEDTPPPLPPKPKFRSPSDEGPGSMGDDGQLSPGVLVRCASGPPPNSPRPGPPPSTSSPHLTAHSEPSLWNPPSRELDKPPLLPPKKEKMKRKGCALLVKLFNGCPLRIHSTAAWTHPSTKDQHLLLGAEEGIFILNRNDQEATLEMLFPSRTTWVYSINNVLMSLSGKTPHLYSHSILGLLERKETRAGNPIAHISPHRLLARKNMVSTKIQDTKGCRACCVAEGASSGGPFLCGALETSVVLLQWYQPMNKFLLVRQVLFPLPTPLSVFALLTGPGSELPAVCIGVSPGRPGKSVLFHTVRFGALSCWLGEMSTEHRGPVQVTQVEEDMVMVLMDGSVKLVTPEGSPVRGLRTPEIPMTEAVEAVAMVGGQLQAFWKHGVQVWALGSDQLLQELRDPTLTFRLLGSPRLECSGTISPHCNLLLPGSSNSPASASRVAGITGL

| IC50 (read-out: IC50) | SMILES | inhibition at 1 µM (1 μM compound) | inhibition at 10 µM (10 μM compound) | IC50 (IC50 (nM)) | % Inhibition at 1 μM (1 μM compound) | % Inhibition at 10 μM (10 μM compound) |
| --- | --- | --- | --- | --- | --- | --- |
| 50 to 100 nM | COc1cc2c(cc1Nc1ncc(Cl)c(N=S(C)(=O)c3ccccc3P(C)(C)=O)n1)CN(C)CC2 (centres unmarked) [Example 57, (2-(N-(5-Chloro-2-((6-methoxy-2-methyl-1,2,3,4-tetrahydroisoquinolin-7-yl)amino)pyrimidin-4-yl)-S-methylsulfonimidoyl)phenyl)dimethylphosphine oxide] | 83% | 79.3% | – | – | – |
| 50 to 100 nM | COc1cc2c(cc1Nc1ncc(Cl)c(Nc3ccc(N(C)C(=O)C(F)F)cc3P(C)(C)=O)n1)CN(C)CC2 [Example 53, N-(4-((5-Chloro-2-((6-methoxy-2-methyl-1,2,3,4-tetrahydroisoquinolin-7-yl)amino)pyrimidin-4-yl)amino)-3-(dimethylphosphoryl)phenyl)-2,2-difluoro-N-methylacetamide] | 82.4% | 90% | – | – | – |
| < 50 nM | COc1cc2c(cc1Nc1ncc(Cl)c(Nc3ccc(OCC(F)F)cc3P(C)(C)=O)n1)CN(C)CC2 [Example 46, (2-((5-Chloro-2-((6-methoxy-2-methyl-1,2,3,4-tetrahydroisoquinolin-7-yl)amino)pyrimidin-4-yl)amino)-5-(2,2-difluoroethoxy)phenyl) dimethylphosphine oxide] | 73.6% | 73.9% | – | – | – |
| – | COc1cc2c(cc1Nc1ncc(Cl)c(Nc3cc(F)c(OS(=O)(=O)F)cc3P(C)(C)=O)n1)CN(C)CC2 [Example 27, 4-((5-Chloro-2-((6-methoxy-2-methyl-1,2,3,4-tetrahydroisoquinolin-7-yl)amino)pyrimidin-4-yl)amino)-5-(dimethylphosphoryl)-2-fluorophenyl sulfofluoridate dihydrochloride] | 81.1% | 82.6% | < 50 nM | – | – |
| – | COc1cc2c(cc1Nc1ncc(Cl)c(Nc3ccc(OS(=O)(=O)F)cc3P(C)(C)=O)n1)CN(CC(F)(F)F)CC2.Cl.Cl [Example 7, 4-((5-Chloro-2-((6-methoxy-2-(2,2,2-trifluoroethyl)-1,2,3,4-tetrahydroisoquinolin-7-yl)amino)pyrimidin-4-yl)amino)-3-(dimethyllphosphoryl)phenyl sulfurofluoridate dihydrochloride] | – | – | – | 37.71% | 69.74% |
| – | CCN1CCc2cc(OC)c(Nc3ncc(Cl)c(Nc4ccc(OS(=O)(=O)F)cc4P(C)(C)=O)n3)cc2C1 [Example 9, 4-((5-Chloro-2-((2-ethyl-6-methoxy-1,2,3,4-tetrahydroisoquinolin-7-yl)amino)pyrimidin-4-yl)amino)-3-(dimethylphosphoryl) phenyl sulfofluoridate dihydrochloride] | 78.5% | 78.8% | < 50 nM | – | – |
| – | COc1cc2c(cc1Nc1ncc(Cl)c(Nc3ccc(OS(=O)(=O)F)cc3P(C)(C)=O)n1)C(C)N(C)CC2 (single isomer, unassigned; isomer 1) [Example 29, 4-((5-Chloro-2-((6-methoxy-1,2-dimethyl-1,2,3,4-tetrahydroisoquinolin-7-yl)amino)pyrimidin-4-yl)amino)-3-(dimethylphosphoryl)phenyl sulfofluoridate dihydrochloride (Isomer 1)] | 76.5% | 76.9% | < 50 nM | – | – |
| – | COc1cc2c(cc1Nc1ncc(Cl)c(Nc3ncc(OS(=O)(=O)F)cc3P(C)(C)=O)n1)CN(C)CC2 [Example 20, 6-((5-Chloro-2-((6-methoxy-2-methyl-1,2,3,4-tetrahydroisoquinolin-7-yl)amino)pyrimidin-4-yl)amino)-5-(dimethylphosphoryl)pyridin-3-yl sulfofluoridate dihydrochloride] | 80.1% | 75.5% | < 50 nM | – | – |
| < 50 nM | COc1cc2c(cc1Nc1ncc(Cl)c(Oc3ccccc3P(C)(C)=O)n1)CN(C)CC2 [Example 59, (2-((5-Chloro-2-((6-methoxy-2-methyl-1,2,3,4-tetrahydroisoquinolin-7-yl)amino)pyrimidin-4-yl)oxy)phenyl)dimethylphosphine oxide] | 83.1% | 87.3% | – | – | – |
| – | COc1cc2c(cc1Nc1ncc(Cl)c(Nc3ccc(OS(=O)(=O)F)cc3P(C)(C)=O)n1)COCC2 [Example 28, 4-((5-Chloro-2-((6-methoxyisochroman-7-yl)amino)pyrimidin-4-yl)amino)-3-(dimethylphosphoryl)phenyl sulfofluoridate hydrochloride] | 69.7% | 75.9% | < 50 nM | – | – |
| – | COc1cc2c(cc1Nc1ncc(Cl)c(Nc3cc(OS(=O)(=O)F)ccc3P(C)(C)=O)n1)CN(C)C(C)C2 (single isomer, unassigned; isomer 1) [Example 35, 3-((5-Chloro-2-((6-methoxy-2,3-dimethyl-1,2,3,4-tetrahydroisoquinolin-7-yl)amino)pyrimidin-4-yl)amino)-4-(dimethylphosphoryl)phenyl sulfofluoridate dihydrochloride (Isomer 1)] | 83% | 79.1% | < 50 nM | – | – |
| – | COc1cc2c(cc1Nc1ncc(Cl)c(Nc3ccc(OS(=O)(=O)F)cc3P(C)(C)=O)n1)CN(C)C(C)C2 (single isomer, unassigned; isomer 1) [Example 33, 4-((5-Chloro-2-((6-methoxy-2,3-dimethyl-1,2,3,4-tetrahydroisoquinolin-7-yl)amino)pyrimidin-4-yl)amino)-3-(dimethylphosphoryl)phenyl sulfofluoridate dihydrochloride (Isomer 1)] | 92.8% | 87.8% | < 50 nM | – | – |
| – | COc1cc2c(cc1Nc1ncc(Cl)c(Nc3ccc(OS(=O)(=O)F)nc3P(C)(C)=O)n1)CN(C)CC2 [Example 21, 5-((5-Chloro-2-((6-methoxy-2-methyl-1,2,3,4-tetrahydroisoquinolin-7-yl)amino)pyrimidin-4-yl)amino)-6-(dimethylphosphoryl)pyridin-2-yl sulfofluoridate dihydrochloride] | 79.2% | 81.6% | < 50 nM | – | – |
| – | CP(C)(=O)c1cc(OS(=O)(=O)F)ccc1Nc1nc(Nc2cc3n(n2)CCNC3)ncc1Cl [Example 42, 4-((5-Chloro-2-((4,5,6,7-tetrahydropyrazolo[1,5-a]pyrazin-2-yl)amino)pyrimidin-4-yl)amino)-3-(dimethylphosphoryl)phenyl sulfofluoridate dihydrochloride] | 84% | 83% | < 50 nM | – | – |
| < 50 nM | COc1cc2c(cc1Nc1ncc(Cl)c(Nc3ccc(OC(F)(F)F)cc3P(C)(C)=O)n1)CN(C)CC2 [Example 47] | 91.4% | 88% | – | – | – |
| – | COc1cc2c(cc1Nc1ncc(C(N)=O)c(Nc3ccc(OS(=O)(=O)F)cc3P(C)(C)=O)n1)CN(C)CC2 [Example 3, 4-((5-Carbamoyl-2-((6-methoxy-2-methyl-1,2,3,4-tetrahydroisoquinolin-7-yl)amino)pyrimidin-4-yl)amino)-3-(dimethylphosphoryl)phenyl sulfurofluoridate dihydrochloride] | 85.6% | 91.2% | < 50 nM | – | – |
